Data reported in paper PMC7269146, “Jingzhaotoxin-X, a gating modifier of Kv4.2 and Kv4.3 potassium channels purified from the venom of the Chinese tarantula Chilobrachys jingzhao” (The Journal of Venomous Animals and Toxins Including …, 2020).
Where a SMILES comes first, the peptide text is derived from it. Bridges are numbered along the chain shown (N, C = ends).

Assays:
Kv4.3 = target: T1, Kv4.3 (Rattus norvegicus, UniProt Q62897); test: kinetic constants of JZTX-X at Kv4.3 channel (wash-in / wash-out); format: cell-based; settings: test conc. 0.5 μM, n = 8
T1 construct: expressed in transfected cells; host or cells: HEK293t
T1 sequence (Q62897 1-655): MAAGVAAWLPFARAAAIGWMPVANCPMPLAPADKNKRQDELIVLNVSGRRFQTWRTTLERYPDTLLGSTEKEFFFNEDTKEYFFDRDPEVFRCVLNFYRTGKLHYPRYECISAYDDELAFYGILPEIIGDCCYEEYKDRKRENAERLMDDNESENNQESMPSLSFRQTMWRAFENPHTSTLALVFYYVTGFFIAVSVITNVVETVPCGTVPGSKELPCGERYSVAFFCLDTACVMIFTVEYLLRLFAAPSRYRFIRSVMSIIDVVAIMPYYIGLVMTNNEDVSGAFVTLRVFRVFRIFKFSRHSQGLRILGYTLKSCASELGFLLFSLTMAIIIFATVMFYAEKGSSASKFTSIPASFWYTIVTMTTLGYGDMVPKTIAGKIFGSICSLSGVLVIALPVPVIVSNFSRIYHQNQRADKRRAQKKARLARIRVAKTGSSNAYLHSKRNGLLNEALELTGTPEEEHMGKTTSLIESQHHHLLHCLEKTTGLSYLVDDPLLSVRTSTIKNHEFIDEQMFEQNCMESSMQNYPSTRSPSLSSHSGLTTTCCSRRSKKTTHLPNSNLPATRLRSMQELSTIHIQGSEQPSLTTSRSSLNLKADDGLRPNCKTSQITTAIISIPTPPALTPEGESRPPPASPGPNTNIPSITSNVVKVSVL
Excerpt: Rat cDNA genes encoding Kv4.2 (Accession: NM_031730.2) and Kv4.3 (Accession: AB003587.1) were subcloned to vector pcDNA3.1. In addition, human cDNA genes encoding Nav1.7 (Accession: DQ857292.1) and Nav1.5 (Accession: AB158469.2) were subcloned to vectors pcDNA3.1-mod and pcDNA3.1, separately. Then, Kv4.2, Kv4.3, Nav1.5 and Nav1.7 constructs were transiently transfected into the human embryonic kidney 293t (HEK293t) cells using lipofectamine 2000 (Invitrogen, USA) in accordance with manufacturer protocols. Thereafter, HEK293 cells were inoculated within Dulbecco’s modified Eagle’s medium (DMEM) containing 10% fetal bovine serum (FBS) at 5% CO2 and 37°C. The Kv4.3 channel and the Kv4.2 counterpart were then transfected in the absence of β subunit. Subsequently, cells were incubated with a DNA-lipofectamine mixture (one reporter plasmid for green fluorescence protein and channel constructs) for 4-6 h, and were washed with the fresh medium.
An EPC-10 patch-clamp amplifier (HEKA, Germany) was employed to record the potassium currents at the configuration of whole-cell patch-clamp under an ambient temperature of 22-25°C. The resistance was 2.0-3.0 MΩ when the recording pipette contained a full volume of internal solution (supplemented with 140 mM KCl, 10 mM HEPES, 2.5 mM MgCl2, 5 mM ATP and 11 mM EGTA). KOH was utilized to adjust the pH to 7.2, while sucrose was employed to adjust the osmolarity to 310 mOsm/L. The culture medium was replaced with an external solution containing 150 mM NaCl, 2.5 mM CaCl2, 10 mM HEPES, 2 mM MgCl2, 5 mM KCl, and 10 mM D-glucose. Similarly, sucrose and NaOH were applied to adjust the osmolarity to 330 mOsm/L and pH to 7.4. […] The series resistance was maintained at about 5 MΩ, with 65-70% compensation. Finally, the leakage currents and linear capacitance were subtracted digitally according to the P/4 protocol.
As for kinetic calculations, curves as a function of peak currents vs. time were plotted from the toxin wash-out or wash-in moments. The software Sigmaplot 9.0 (Sigma, USA) was utilized to fit data to the first-order exponential equation. […]

[1] = mechanical hyperalgesia / nociceptive behavior in mice (von Frey, up-down); format: in vivo, mouse (male C57BL/6); settings: 40 nmol/kg
Protocol: In the present study, male C57BL/6 mice weighing 20-25 g were utilized. This study was performed following the Guide for the Care and Use of Laboratory Animals released by the United States National Institutes of Health (US NIH). Our study protocol was approved by the Animal Experiments Ethics Committee at Central Southern University (No. 2018-2-6). Each operation was performed under isoflurane-induced anesthesia to reduce pain and minimize animal suffering. Lumbar puncture was also conducted for intrathecal injection, as described previously. Next, the effect of JZTX-X on nociception was evaluated by assessing the behaviors during the mechanical hyperalgesia process. The JZTX-X-induced mechanical hyperalgesia was investigated by two experiments via various administration routes, including intrathecal and intraplantar injections. Then, animals were challenged via intrathecal (10 µL) or intraplantar (20 µL) injection of JZTX-X (40 nmol/kg). The control group was given a physiological solution, which contained 0.9% NaCl, […].
Mechanical hyperalgesia was measured according to the previously depicted “up-down” paradigm. Individual mice were allowed to acclimate for at least 30 min on the mesh floor in suspended chambers. After acclimatization, various calibrated von Frey filaments (Stoelting, Wood Dale, IL) were applied to all animals, which were vertical to the hind paw plantar surfaces becausethere was enough force for bending those filaments for 6 s. Later, the animal responses were recorded. The positive response was defined as paw flinching or brisk withdrawal. When there was no response, force filament at a greater level was applied. Accordingly, force ligament at a lower level was applied […]. The “up-down” approach was adopted to calculate the 50% likelihood where one withdrawal response was produced by the simple stimulus.

SMILES: CC(C)C[C@@H]1NC(=O)[C@H](CCCCN)NC(=O)[C@H](Cc2ccc(O)cc2)NC(=O)[C@@H]2CSSC[C@@H]3NC(=O)[C@H](Cc4ccc(O)cc4)NC(=O)[C@H](Cc4ccccc4)NC(=O)CNC(=O)[C@H](C)NC(=O)[C@H](CSSC[C@H](NC(=O)[C@@H](N)CC(C)C)C(=O)N[C@@H](CO)C(=O)N[C@@H](CCCNC(=N)N)C(=O)N[C@@H](CCC(=O)O)C(=O)NCC(=O)N[C@@H](CCC(=O)O)C(=O)N[C@@H](Cc4ccccc4)C(=O)N2)NC(=O)[C@H](CSSC[C@@H](C(=O)N[C@@H](Cc2ccc(O)cc2)C(=O)N[C@@H](CCCNC(=N)N)C(=O)N[C@@H](CC(N)=O)C(=O)O)NC(=O)[C@H](Cc2c[nH]cn2)NC(=O)[C@H](CC(C)C)NC(=O)[C@H](C(C)C)NC(=O)[C@H](Cc2ccccc2)NC(=O)[C@H](C)NC(=O)[C@H](CCCCN)NC3=O)NC(=O)[C@H](CCCCN)NC(=O)[C@H](CCCNC(=N)N)NC1=O [JZTX-X, Jingzhaotoxin-X] (H-LCSREGEFCYKLRKCCAGFYCKAFVLHCYRN-OH; disulfide 2-16, 9-21, 15-28; N-terminus assumed)
- kmod, Kv4.3 channel (Kv4.3; inverse of τ of toxin wash-in): 0.073 ± 0.006 s⁻¹
- koff (Kv4.3; inverse of τ of toxin wash-out): 0.005 ± 0.0004 s⁻¹
- Ki (Kv4.3; method text: Kd = koff / kon): 735 ± 50 nM
- baseline threshold of tactile withdrawal ([1]; intraplantar, n = 8): markedly decreased
- duration of reduced paw withdrawal threshold ([1]; intrathecal or intraplantar, after cessation of treatment): at least 120 min
- spontaneous nociceptive behaviors ([1]; intrathecal or intraplantar, n = 8): did not induce spontaneous nociceptive behaviors
- baseline threshold of tactile withdrawal ([1]; intrathecal, n = 8): markedly decreased
